Experimental data published in US20110257074A1, “METHOD FOR THE PURIFICATION OF SUBSTITUTED CYCLOPENT-2-EN-1-ONE CONGENERS AND SUBSTITUTED 1,3-CYCLOPENTADIONE CONGENERS FROM A COMPLEX MIXTURE USING COUNTERCURRENT SEPARATION” (Metaproteomics, LLC, priority 2008, published 2011).

Assays:
[1] = Partition coefficient in trial HSCCC countercurrent separations of THIAA; type: physicochemical
Method: All HSCCC experimentation was conducted on a CCC-1000 J-type three-coiled planetary motion HSCCCC (Pharma-Tech Research Corp., Baltimore, Md., USA). The rotation radius is 7.5 cm, and 3×108 mL PTFE Teflon coils with an inner diameter of 1.6 mm, an outer diameter of 2.7 mm, and beta values of 0.47 to 0.73 for all coils. This was coupled with Shimadzu (Kyoto, Japan) liquid chromatography instrumentation: LC-20AT pump, DGU-20A5 degasser, CBM-20A controller, and SPD-10AV UV detector. A preparative Rheodyne (Rohnert Park, Calif. USA) 3725i-038 injector was in line with a 3.8 mL sample loop (changed to 10 mL for entry 7). The sample was monitored at 254 nm and 314 nm during the course of the run.
KU/L values for THIAA were determined in a variety of HEMWat solvent systems according to the shake-flask partitioning assay. Two solvent systems, referred to as A and B, provided K values within the range 1.5-2.5 and with significant differences between THIAA congeners (•K). For these reasons solvent systems A and B were selected for further development on the HSCCC (Table 9). […] The entries in Table 10 correspond to seven trial THIAA HSCCC purifications; entries 1-3 were conducted using solvent system A; entries 4-7 used solvent system B. Because of the difference in THIAA concentration between the shake-flask assay (0.1 mg/mL, 0.273 mM) and the HSCCC sample loop (100 mg/mL; 273 mM), aqueous phase buffer concentrations of 1.2 M (entries 1-3, Table 10) and 555 mM (entries 4-7, Table 10) were employed for the HSCCC trials. Entry 3 in Table 10 uses a bi-phasic sample-loop injection (solvent C, Table 9) consisting of 1.9 mL of upper phase (200 mg/mL THIAA, 0.55M) and 1.9 mL of lower phase (6.5M NH4HAc aq.). A switching volume was employed in entries 2, 6 and 7 in order to assess the elution-extrusion protocol as reported by Pauli et al.
Entries 4 & 5 Table 10, examine the effect of increasing the pH for solvent system B on the resolution between THIAA congeners. We reasoned that increased pH leads to a greater concentration of the ionized form of the THIAA (conjugate base) thus resulting in greater amounts of THIAA retained in the aqueous stationary phase i.e., increased retention volume (Vr).

[2] = Shake-flask liquid distribution ratio (Kd), Hexane:Water:Buffer 10:9:1 solvent system; type: physicochemical
Method: Several shake-flask experiments were conducted to test several solvent systems and determine the liquid distribution ratio (Kd) and partition coefficient values for optimal separations. Partition coefficient values derived from shake-flask experiments are a reliable predictor of countercurrent chromatographic behavior. Kd is the concentration of the analyte in the upper phase divided by the concentration of the analyte in the lower phase and, in the alternative, may be listed as Ku/l.
General Procedure and Parameters for Shake Flask Experiments: Addition of 1 mL of the stock buffer at a known pH. Addition of the other necessary solvents to make up the system. Addition of the analyte mixture dissolved in hexane at 400 mg/mL. Final analyte concentration in the shake flask is 0.1 mg/mL. The flask was capped and mixed (by a vortex mixer) for 10 seconds. An aliquot was taken from the upper phase for HPLC analysis, and additionally a separate aliquot was taken from the lower phase for HPLC analysis from each flask. Each component was analyzed by HPLC and integrated using Shimadzu Class VP Software version 7.3 SP1.

[3] = trial 1, solvent system A, ascending elution, 680 rpm, 4 mL/min, 3.8 mL sample loop
[4] = trial 2, solvent system A, switching volume 320 mL, ascending elution, 680 rpm, 4 mL/min
[5] = trial 3, solvent system A, bi-phasic sample-loop injection (1.9 mL solvent system C), ascending elution
[6] = trial 4, solvent system B′, ascending elution, 680 rpm, 4 mL/min
[7] = trial 5, solvent system B, ascending elution, 680 rpm, 4 mL/min
[8] = trial 6, solvent system B, switching volume 600 mL, ascending elution
[9] = trial 7, solvent system B, switching volume 520 mL, 1.0 g raw material loaded, 10 mL sample loop

CCC(C)C(=O)C1=C(O)[C@@](O)(C(=O)CCC(C)C)[C@H](CCC(C)C)C1=O (single isomer, unassigned; (+)) [TH4]
Partition Coefficient [1, 3]: 1.0 | Partition Coefficient [1, 4]: 1.0 | Partition Coefficient [1, 5]: 1.1 | Partition Coefficient [1, 6]: 0.6 | Partition Coefficient [1, 7]: 0.8 | Partition Coefficient [1, 8]: 0.8 | Partition Coefficient [1, 9]: 0.8 | THIAA K Value ([2]; pH 4.9, Aug. 5, 2008): 55.6 | THIAA K Value ([2]; pH 5.5, Aug. 5, 2008): 16.1 | THIAA K Value ([2]; pH 5.6, Aug. 5, 2008): 11.0 | THIAA K Value ([2]; pH 6.0, Aug. 5, 2008): 5.5

CC(C)CCC(=O)[C@]1(O)C(O)=C(C(=O)C(C)C)C(=O)[C@H]1CCC(C)C [TH1, (+)-(4R,5S)-3,4-dihydroxy-2-isobutyryl-5-(3-methylbutyl)-4-(4-methylpentanoyl)cyclopent-2-en-1-one]
Partition Coefficient [1, 3]: 2.0 | Partition Coefficient [1, 4]: 2.0 | Partition Coefficient [1, 5]: 2.1 | Partition Coefficient [1, 6]: 1.7 | Partition Coefficient [1, 7]: 2.5 | Partition Coefficient [1, 8]: 2.7 | Partition Coefficient [1, 9]: 2.6 | THIAA K Value ([2]; pH 4.9, Aug. 5, 2008): 16.5 | THIAA K Value ([2]; pH 5.5, Aug. 5, 2008): 4.2 | THIAA K Value ([2]; pH 5.6, Aug. 5, 2008): 3.0 | THIAA K Value ([2]; pH 6.0, Aug. 5, 2008): 1.5

CC(C)CCC(=O)[C@@]1(O)C(O)=C(C(=O)C(C)C)C(=O)[C@H]1CCC(C)C [TH2, (−)-(4S,5S)-3,4-dihydroxy-2-isobutyryl-5-(3-methylbutyl)-4-(4-methylpentanoyl)cyclopent-2-en-1-one]
THIAA K Value ([2]; pH 4.9, Aug. 5, 2008): 10.8 | THIAA K Value ([2]; pH 5.5, Aug. 5, 2008): 2.5 | THIAA K Value ([2]; pH 5.6, Aug. 5, 2008): 1.8 | THIAA K Value ([2]; pH 6.0, Aug. 5, 2008): 0.9

CCC(C)C(=O)C1=C(O)C(O)(C(=O)CCC(C)C)C(CCC(C)C)C1=O (stereo not drawn) [TH3, trans tetra ad-isoalpha acid]
THIAA K Value ([2]; pH 4.9, Aug. 5, 2008): 60.3 | THIAA K Value ([2]; pH 5.5, Aug. 5, 2008): 17.8 | THIAA K Value ([2]; pH 5.6, Aug. 5, 2008): 11.4 | THIAA K Value ([2]; pH 6.0, Aug. 5, 2008): 5.5

CC(C)CCC(=O)[C@]1(O)C(O)=C(C(=O)CC(C)C)C(=O)[C@H]1CCC(C)C [TH5, (+)-(4R,5S)-3,4-dihydroxy-2-(3-methylbutanoyl)-5-(3-methylbutyl)-4-(4-methylpentanoyl)cyclopent-2-en-1-one]
Partition Coefficient [1, 3]: 1.4 | Partition Coefficient [1, 4]: 1.4 | Partition Coefficient [1, 5]: 1.4 | Partition Coefficient [1, 6]: 0.9 | Partition Coefficient [1, 7]: 1.3 | Partition Coefficient [1, 8]: 1.3 | Partition Coefficient [1, 9]: 1.5 | THIAA K Value ([2]; pH 4.9, Aug. 5, 2008): 32.8 | THIAA K Value ([2]; pH 5.5, Aug. 5, 2008): 9.5 | THIAA K Value ([2]; pH 5.6, Aug. 5, 2008): 6.6 | THIAA K Value ([2]; pH 6.0, Aug. 5, 2008): 3.3
